Drawing on the supplement of paper PMC10307832, this text covers relative viability for eleven cell lines.

Experiment in all cases: relative viability (nuclei count vs DMSO), 5 days (fraction); higher = more cells survive
Compound in assay [1]: C1=CC2=C(C=CC(=C2)C=C3C(=O)NC(=NCC4=CC=CS4)S3)N=C1 [RO-3306] + Nc1nc2[nH]cc(CCc3ccc(C(=O)N[C@@H](CCC(=O)O)C(=O)O)cc3)c2c(=O)[nH]1 [Pemetrexed] (partner 0.2 µM)
In outline:
(§1)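 Relative viability is defined as nuclei in treated wells over nuclei in vehicle wells. Duplicate plates were run and medians reported. Lung cancer cell lines in 1536-well plates were dosed by pin tool one day after seeding, with one drug or with a fixed anchor-drug dose plus five library-drug doses (not always all listed) in √10 steps, and nuclei were counted after 5 days.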

Compound in assay [2]: O=S(=O)(c1ccccc1)N(CC(F)(F)F)c1ccc(C(O)(C(F)(F)F)C(F)(F)F)cc1 + Nc1nc2[nH]cc(CCc3ccc(C(=O)N[C@@H](CCC(=O)O)C(=O)O)cc3)c2c(=O)[nH]1 [Pemetrexed] (partner 0.2 µM)
In outline:
as §1

Compound in assay [3]: O=S(=O)(c1ccccc1)N(CC(F)(F)F)c1ccc(C(O)(C(F)(F)F)C(F)(F)F)cc1 + O=C(CCCCCCC(=O)Nc1ccccc1)NO [Vorinostat] (partner 1 µM)
In outline: as §1

Compound in assay [4]: O=S(=O)(c1ccccc1)N(CC(F)(F)F)c1ccc(C(O)(C(F)(F)F)C(F)(F)F)cc1 + NC(=O)Nc1cc(-c2cccc(F)c2)sc1C(=O)N[C@H]1CCCNC1 [AZD7762] (partner 0.2 µM)
Summed up: as §1

Compound in assay [5]: O=S(=O)(c1ccccc1)N(CC(F)(F)F)c1ccc(C(O)(C(F)(F)F)C(F)(F)F)cc1 + Nc1ncn([C@H]2C[C@H](O)[C@@H](CO)O2)c(=O)n1 [Decitabine] (partner 2 µM)
In outline: as §1

Compound in assay [6]: O=S(=O)(c1ccccc1)N(CC(F)(F)F)c1ccc(C(O)(C(F)(F)F)C(F)(F)F)cc1 + C[C@@H](Oc1cc(-c2cnn(C3CCNCC3)c2)cnc1N)c1c(Cl)ccc(F)c1Cl [Crizotinib] (partner 1 µM)
Summed up:
as §1

NCI-H1648: the relative viability in assay [1] (first compound 0.01 µM) was found to be 0.887; in assay [1] (first compound 0.1 µM) it was 0.602; in assay [1] (first compound 0.3162 µM), 0.697; in assay [1] (first compound 1 µM), 0.873; in assay [2] (first compound 0.8 µM) it was 0.718; in assay [2] (first compound 2.53 µM), 0.574. The relative viability in assay [2] (first compound 8 µM) is 0.535; in assay [3] (first compound 0.8 µM), 0.41; in assay [3] (first compound 2.53 µM), 0.387; in assay [3] (first compound 8 µM), 0.312; in assay [4] (first compound 0.8 µM) it was 0.694; in assay [4] (first compound 2.53 µM) it was 0.505. The relative viability in assay [4] (first compound 8 µM) came out at 0.707; in assay [5] (first compound 0.8 µM), 0.462; in assay [5] (first compound 2.53 µM) it was 0.546; in assay [5] (first compound 8 µM), 0.595.
For the cell line UMC-11, the relative viability was 0.585 in assay [6] (first compound 0.8 µM); 0.583 in assay [6] (first compound 2.53 µM); 0.749 in assay [6] (first compound 8 µM); 0.906 in assay [1] (first compound 0.01 µM); 0.746 in assay [1] (first compound 0.03162 µM); 0.816 in assay [1] (first compound 0.1 µM). For the same cell line, the relative viability in assay [1] (first compound 0.3162 µM) was 0.816; in assay [1] (first compound 1 µM) it was 0.791; in assay [2] (first compound 0.8 µM), 0.786; in assay [2] (first compound 2.53 µM), 0.736; in assay [2] (first compound 8 µM), 0.852; in assay [3] (first compound 0.8 µM) it was 0.381. For the same cell line, the relative viability was determined as 0.357 in assay [3] (first compound 2.53 µM); 0.396 in assay [3] (first compound 8 µM); 0.587 in assay [5] (first compound 0.8 µM); 0.471 in assay [5] (first compound 2.53 µM); 0.681 in assay [5] (first compound 8 µM).
As for NCI-H2228, the relative viability worked out at 0.389 in assay [6] (first compound 0.8 µM); 0.354 in assay [6] (first compound 2.53 µM); 0.462 in assay [6] (first compound 8 µM); 0.356 in assay [1] (first compound 0.01 µM); 0.36 in assay [1] (first compound 0.03162 µM); 0.347 in assay [1] (first compound 0.1 µM). For the same cell line, the relative viability in assay [1] (first compound 0.3162 µM) amounted to 0.355; in assay [1] (first compound 1 µM) it was 0.265; in assay [2] (first compound 0.8 µM), 0.373; in assay [2] (first compound 2.53 µM), 0.309; in assay [2] (first compound 8 µM) it was 0.333; in assay [3] (first compound 0.8 µM) it was 0.62. Further, the relative viability in assay [3] (first compound 2.53 µM) came to 0.427; in assay [3] (first compound 8 µM), 0.644.
Take NCI-H661: the relative viability in assay [6] (first compound 0.8 µM) amounted to 0.99; in assay [6] (first compound 2.53 µM), 0.965; in assay [6] (first compound 8 µM) it was 0.933; in assay [1] (first compound 0.01 µM), 0.966; in assay [1] (first compound 0.03162 µM), 0.954; in assay [1] (first compound 0.1 µM) it was 0.929. Also, the relative viability stood at 0.926 in assay [1] (first compound 0.3162 µM); 0.963 in assay [1] (first compound 1 µM); 0.908 in assay [2] (first compound 0.8 µM); 0.934 in assay [2] (first compound 2.53 µM); 0.924 in assay [2] (first compound 8 µM); 0.828 in assay [3] (first compound 0.8 µM). Also, the relative viability in assay [3] (first compound 2.53 µM) amounted to 0.783; in assay [3] (first compound 8 µM) it was 0.821; in assay [5] (first compound 0.8 µM) it was 0.612; in assay [5] (first compound 2.53 µM), 0.569; in assay [5] (first compound 8 µM), 0.498.
As to A549, the relative viability is 0.884 in assay [6] (first compound 0.8 µM); 0.74 in assay [6] (first compound 2.53 µM); 0.703 in assay [6] (first compound 8 µM); 0.411 in assay [5] (first compound 0.8 µM); 0.292 in assay [5] (first compound 2.53 µM); 0.201 in assay [5] (first compound 8 µM).
Turning to CAL-12T, the relative viability in assay [6] (first compound 0.8 µM) amounted to 0.708; in assay [6] (first compound 2.53 µM) it was 0.417; in assay [6] (first compound 8 µM) it was 0.477; in assay [1] (first compound 0.01 µM), 1.38; in assay [1] (first compound 0.03162 µM), 1.35; in assay [1] (first compound 0.1 µM) it was 1.17. Besides, the relative viability came out at 1.15 in assay [1] (first compound 0.3162 µM); 1.26 in assay [1] (first compound 1 µM); 1.29 in assay [2] (first compound 0.8 µM); 1.06 in assay [2] (first compound 2.53 µM); 0.982 in assay [2] (first compound 8 µM); 0.672 in assay [3] (first compound 0.8 µM). Further, the relative viability was 0.578 in assay [3] (first compound 2.53 µM); 0.548 in assay [3] (first compound 8 µM); 0.482 in assay [4] (first compound 0.8 µM); 0.566 in assay [4] (first compound 2.53 µM); 0.522 in assay [4] (first compound 8 µM).
Consider NCI-H2023, for which the relative viability in assay [6] (first compound 0.8 µM) is 0.754; in assay [6] (first compound 2.53 µM) it was 0.524; in assay [6] (first compound 8 µM) it was 0.61; in assay [1] (first compound 0.01 µM), 0.233; in assay [1] (first compound 0.03162 µM), 0.23; in assay [1] (first compound 0.1 µM), 0.209. Also, the relative viability in assay [1] (first compound 0.3162 µM) amounted to 0.274; in assay [1] (first compound 1 µM), 0.262; in assay [2] (first compound 0.8 µM) it was 0.274; in assay [2] (first compound 2.53 µM), 0.268; in assay [2] (first compound 8 µM), 0.231; in assay [3] (first compound 0.8 µM), 0.567. The relative viability is 0.422 in assay [3] (first compound 2.53 µM); 0.512 in assay [3] (first compound 8 µM); 0.221 in assay [5] (first compound 0.8 µM); 0.233 in assay [5] (first compound 2.53 µM); 0.221 in assay [5] (first compound 8 µM).
On to NCI-H1792, for which the relative viability in assay [6] (first compound 0.8 µM) is 0.843; in assay [6] (first compound 2.53 µM) it was 0.75; in assay [6] (first compound 8 µM) it was 0.818; in assay [1] (first compound 0.01 µM), 1.11; in assay [1] (first compound 0.1 µM), 0.649; in assay [1] (first compound 0.3162 µM) it was 0.757. Besides, the relative viability was found to be 0.749 in assay [1] (first compound 1 µM); 0.892 in assay [2] (first compound 0.8 µM); 0.702 in assay [2] (first compound 2.53 µM); 0.717 in assay [2] (first compound 8 µM); 0.841 in assay [4] (first compound 0.8 µM); 0.616 in assay [4] (first compound 2.53 µM). For the same cell line, the relative viability in assay [4] (first compound 8 µM) stood at 0.441; in assay [5] (first compound 0.8 µM) it was 0.562; in assay [5] (first compound 2.53 µM) it was 0.395; in assay [5] (first compound 8 µM), 0.562.
For the cell line NCI-H1299, the relative viability was found to be 0.958 in assay [6] (first compound 0.8 µM), 0.942 in assay [6] (first compound 2.53 µM) and 0.906 in assay [6] (first compound 8 µM).
Regarding SW 1573, the relative viability in assay [6] (first compound 0.8 µM) stood at 0.709; in assay [6] (first compound 2.53 µM), 0.75; in assay [6] (first compound 8 µM) it was 0.636; in assay [1] (first compound 0.01 µM) it was 0.893; in assay [1] (first compound 0.03162 µM) it was 0.744; in assay [1] (first compound 0.1 µM), 0.697. For the same cell line, the relative viability in assay [1] (first compound 0.3162 µM) was 0.9; in assay [1] (first compound 1 µM) it was 0.67; in assay [2] (first compound 0.8 µM) it was 0.904; in assay [2] (first compound 2.53 µM), 0.76; in assay [2] (first compound 8 µM), 0.877; in assay [3] (first compound 0.8 µM), 0.634. The relative viability in assay [3] (first compound 2.53 µM) was 0.722; in assay [3] (first compound 8 µM) it was 0.725; in assay [5] (first compound 0.8 µM) it was 0.542; in assay [5] (first compound 2.53 µM), 0.543; in assay [5] (first compound 8 µM), 0.541.
Turning to Calu-6, the relative viability in assay [6] (first compound 0.8 µM) turned out to be 0.7; in assay [6] (first compound 2.53 µM), 0.668; in assay [6] (first compound 8 µM), 0.649.
